Reference: paper PMC3914206

Columns and labels:
Format in all cases: binding
Design in all cases: KINOMEscan: ABL1(F317L)-phosphorylated / KINOMEscan: ABL1(H396P)-nonphosphorylated / KINOMEscan: ABL1(H396P)-phosphorylated / KINOMEscan: ABL1(M351T)-phosphorylated / KINOMEscan: ABL1(T315I)-phosphorylated / KINOMEscan: ABL1-nonphosphorylated / KINOMEscan: ABL1-phosphorylated / KINOMEscan: ACVR2A / KINOMEscan: ACVR2B / KINOMEscan: ADCK3 / KINOMEscan: ADCK4 / KINOMEscan: AKT1 / KINOMEscan: AKT3 / KINOMEscan: ALK / KINOMEscan: ARK5 / KINOMEscan: AURKA / KINOMEscan: AURKC / KINOMEscan: BIKE / KINOMEscan: BMPR1A / KINOMEscan: BMPR1B / KINOMEscan: BMX / KINOMEscan: BRK / KINOMEscan: BRSK1 / KINOMEscan: BRSK2 / KINOMEscan: CAMK1 / KINOMEscan: CAMK1D / KINOMEscan: CAMK1G / KINOMEscan: CAMK2A / KINOMEscan: CAMK2B / KINOMEscan: AAK1 / KINOMEscan: CAMK2D / KINOMEscan: CAMK2G / KINOMEscan: ABL1(F317I)-nonphosphorylated / KINOMEscan: ABL1(F317I)-phosphorylated / KINOMEscan: ABL1(F317L)-nonphosphorylated: unit: % Ctrl
Details in all cases: Compound Concentration 10 µM
panel of 442 kinases [1] = biological target: T1, panel of 442 kinases (Homo sapiens, UniProt P27037)
T1 construct: purchased KINOMEscan
Source text: (§1) We assessed the selectivity of members of this scaffold using the KINOMEscan methodology across a near comprehensive panel of 442 kinases [[18,27]].

panel of 442 kinases [2] = biological target: T2, panel of 442 kinases (Homo sapiens, UniProt Q13164)
T2 construct: purchased KINOMEscan
Source text: as §1

panel of 442 kinases [3] = biological target: T3, panel of 442 kinases (Homo sapiens, UniProt Q13237)
T3 construct: purchased KINOMEscan
T3 sequence (Q13237 1-762): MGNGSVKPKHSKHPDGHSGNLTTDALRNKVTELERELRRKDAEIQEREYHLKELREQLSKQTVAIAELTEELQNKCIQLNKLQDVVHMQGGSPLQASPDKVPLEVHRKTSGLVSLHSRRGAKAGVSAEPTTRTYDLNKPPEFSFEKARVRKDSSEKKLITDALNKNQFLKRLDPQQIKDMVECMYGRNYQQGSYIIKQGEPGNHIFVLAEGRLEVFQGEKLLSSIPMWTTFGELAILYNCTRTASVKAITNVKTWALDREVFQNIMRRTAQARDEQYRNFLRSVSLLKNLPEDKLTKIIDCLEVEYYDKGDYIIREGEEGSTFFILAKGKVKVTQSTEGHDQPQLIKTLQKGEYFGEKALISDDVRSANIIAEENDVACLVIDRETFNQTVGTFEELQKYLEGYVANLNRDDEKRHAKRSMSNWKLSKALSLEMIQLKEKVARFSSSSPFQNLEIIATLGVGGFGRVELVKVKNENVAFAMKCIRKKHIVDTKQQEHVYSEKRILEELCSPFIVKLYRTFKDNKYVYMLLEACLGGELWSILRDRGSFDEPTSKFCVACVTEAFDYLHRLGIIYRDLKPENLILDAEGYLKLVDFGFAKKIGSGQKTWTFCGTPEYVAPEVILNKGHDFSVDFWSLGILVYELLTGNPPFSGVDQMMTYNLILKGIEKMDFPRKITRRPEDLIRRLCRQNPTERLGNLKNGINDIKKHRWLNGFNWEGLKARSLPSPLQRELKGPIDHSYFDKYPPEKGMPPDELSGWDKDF
Source text: as §1

T2 sequence (Q13164 whole entry): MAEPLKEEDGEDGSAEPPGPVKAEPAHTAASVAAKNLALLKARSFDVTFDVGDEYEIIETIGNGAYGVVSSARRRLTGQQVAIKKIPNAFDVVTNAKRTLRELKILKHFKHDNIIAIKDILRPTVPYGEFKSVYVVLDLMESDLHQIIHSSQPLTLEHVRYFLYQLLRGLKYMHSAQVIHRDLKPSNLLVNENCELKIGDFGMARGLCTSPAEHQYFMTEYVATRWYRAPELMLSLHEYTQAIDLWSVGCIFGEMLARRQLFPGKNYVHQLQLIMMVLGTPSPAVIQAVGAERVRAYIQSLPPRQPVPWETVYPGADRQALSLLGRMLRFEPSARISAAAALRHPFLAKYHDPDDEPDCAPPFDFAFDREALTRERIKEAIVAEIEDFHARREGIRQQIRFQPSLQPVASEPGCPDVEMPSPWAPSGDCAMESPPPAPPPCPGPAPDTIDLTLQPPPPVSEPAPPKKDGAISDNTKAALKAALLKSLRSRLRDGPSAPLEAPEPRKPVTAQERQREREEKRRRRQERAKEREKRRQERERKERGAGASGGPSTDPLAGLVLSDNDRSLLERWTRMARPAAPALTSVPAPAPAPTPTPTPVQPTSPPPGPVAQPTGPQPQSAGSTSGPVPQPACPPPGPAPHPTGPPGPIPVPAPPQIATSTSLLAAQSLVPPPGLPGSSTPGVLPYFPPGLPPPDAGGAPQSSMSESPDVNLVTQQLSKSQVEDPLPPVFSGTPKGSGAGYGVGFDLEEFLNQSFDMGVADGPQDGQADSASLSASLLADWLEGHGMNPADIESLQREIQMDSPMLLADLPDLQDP
T1 sequence (P27037 20-513): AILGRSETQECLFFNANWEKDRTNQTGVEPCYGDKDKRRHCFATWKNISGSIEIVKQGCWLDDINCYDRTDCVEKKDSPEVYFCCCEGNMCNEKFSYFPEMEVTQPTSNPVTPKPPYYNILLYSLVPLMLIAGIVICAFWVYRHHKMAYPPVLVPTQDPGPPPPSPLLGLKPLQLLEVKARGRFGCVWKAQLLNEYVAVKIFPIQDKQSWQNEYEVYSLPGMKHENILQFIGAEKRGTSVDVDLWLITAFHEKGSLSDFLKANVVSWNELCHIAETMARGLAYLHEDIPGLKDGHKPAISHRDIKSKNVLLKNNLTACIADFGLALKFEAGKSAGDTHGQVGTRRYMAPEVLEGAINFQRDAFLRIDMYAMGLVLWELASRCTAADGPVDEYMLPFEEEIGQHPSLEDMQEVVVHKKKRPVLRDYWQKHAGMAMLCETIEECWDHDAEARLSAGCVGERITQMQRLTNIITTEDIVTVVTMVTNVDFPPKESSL

Q: How did the “KINOMEscan: ACVR2A” value (panel of 442 kinases [1]) turn out when COc1cc(C(=O)N2CCC(N3CCN(C)CC3)CC2)ccc1Nc1ncc2c(n1)N(C1CCCC1)c1ccccc1C(=O)N2C [Compound 25, 11-cyclopentyl-2-((2-methoxy-4-(4-(4-methylpiperazin-1-yl)piperidine-1-carbonyl)phenyl)amino)-5-methyl-5H-benzo[e]pyrimido[5,4-b][1,4]diazepin-6(11H)-one] was run?
A: The value was 93.

Q: And the “KINOMEscan: ERK5” value (panel of 442 kinases [2])?
A: The value was 0.05.

Q: What about the “KINOMEscan: PRKG2” value (panel of 442 kinases [3]) of the same compound?
A: The value was 98.

Q: Which “KINOMEscan: ACVR2A” value (panel of 442 kinases [1]) does the source give for COc1cc(C(=O)N2CCC(N3CCN(C)CC3)CC2)ccc1Nc1ncc2c(n1)N1CCc3cccc(c31)C(=O)N2C [Compound 24] here?
A: Its value is 71.

Q: And the “KINOMEscan: PRKG2” value (panel of 442 kinases [3])?
A: Its value is 98.

Q: Which results are given for COc1cc(C(=O)N2CCC(N3CCN(C)CC3)CC2)ccc1Nc1ncc2c(n1)N(C)c1ccccc1C(=O)N2C [15 (LRRK2-IN-1)]?
A: KINOMEscan: ACVR2A (panel of 442 kinases [1]): 100; KINOMEscan: ERK5 (panel of 442 kinases [2]): 0.05; KINOMEscan: PRKG2 (panel of 442 kinases [3]): 74

Q: Which “KINOMEscan: ACVR2A” value (panel of 442 kinases [1]) does the source give for CCOc1cc(C(=O)N2CCC(N3CCN(C)CC3)CC2)ccc1Nc1ncc2c(n1)N(C1CCCC1)c1ccccc1C(=O)N2C [Compound 26] here?
A: The value was 95.

Q: And the “KINOMEscan: ERK5” value (panel of 442 kinases [2])?
A: Its value is 0.1.

Q: What about the “KINOMEscan: PRKG2” value (panel of 442 kinases [3]) of the same compound?
A: Its value is 100.
